Results as given in publication PMC5898707, “Piperazinyl fragment improves anticancer activity of Triapine” (PLoS ONE, 2018).

Columns and labels:
cancer cell lines = assay: Cytotoxicity MTS assay, whole panel of cancer cell lines; format: cell-based; settings: Homo sapiens, Hs 683; all the cancer lines, Hs683 an exception
From the text: (§1) The human colon carcinoma cell line HCT116 wild type (p53^+/+), human breast carcinoma cell line MCF-7 and glioblastoma cell line Hs683 were obtained from ATCC. The glioma cell line U-251 was purchased from Sigma Aldrich and the normal human fibroblast cell lines NHDF from PromoCell. The human colon cancer cell line HCT116 with a p53 deletion (p53^-/-) was kindly provided by Prof. M. Rusin from the Maria Sklodowska-Curie Memorial Cancer Centre and Institute of Oncology in Gliwice, Poland. Cells were grown as monolayer cultures in Dulbecco’s modified Eagle’s medium with an antibiotic gentamicin (200 μL/100 mL medium) in 75 cm^2 flasks (Nunc). DMEM for HCT116, MCF-7, U-251, Hs683 were supplemented with 12% heat-inactivated fetal bovine serum (Sigma) and for NHDF with 15% non-inactivated fetal bovine serum (Sigma). All the cell lines were cultured under standard conditions at 37°C in a humidified atmosphere at 5% CO2.
The cells were seeded in 96-well plates (Nunc) at a density of 5,000 cells/well (HCT116, MCF-7, U-251, Hs683) and 4,000 cells/well (NHDF) and incubated at 37°C for 24 h. […] The optical densities of the samples were analyzed at 490 nm using a multi-plate reader (Synergy 4, Bio Tek). Results were expressed as a percentage of the control and calculated as the inhibitory concentration (IC50) values using GraphPad Prism 5. […]

HCT116 p53^-/- = assay: Cytotoxicity MTS assay, 72 h; format: cell-based, human; settings: Homo sapiens, HCT-116; HCT116 p53^-/-; 72 h; MTS
From the text: as §1
(§2) The cells were seeded in 96-well plates (Nunc) at a density of 5,000 cells/well (HCT116, MCF-7, U-251, Hs683) and 4,000 cells/well (NHDF) and incubated at 37°C for 24 h. The assay was performed following a 72 h incubation with varying concentrations of the compounds that were tested. Then, 20 μL of The CellTiter 96®AQueous One Solution-MTS (Promega) solution was added to each well (with 100 μL DMEM without phenol red) and incubated for 1 h at 37°C. The optical densities of the samples were analyzed at 490 nm using a multi-plate reader (Synergy 4, Bio Tek). Results were expressed as a percentage of the control and calculated as the inhibitory concentration (IC50) values using GraphPad Prism 5. The IC50 parameter was defined as the compound concentration that was necessary to reduce the proliferation of cells to 50% of the untreated control. Each individual compound was tested in triplicate in a single experiment with each experiment being repeated four to five times.

U-251 = assay: Cytotoxicity MTS assay, 72 h; format: cell-based, human; settings: Homo sapiens; U-251; 72 h; MTS
From the text: as §1, §2

Hs683 = assay: Cytotoxicity MTS assay, 72 h; format: cell-based, human; settings: Homo sapiens, Hs 683; Hs683; 72 h; MTS
From the text: as §1, §2

HCT116 p53^+/+ = assay: Cytotoxicity MTS assay, 72 h; format: cell-based, human; settings: Homo sapiens, HCT-116; HCT116 p53^+/+; 72 h; MTS
From the text: as §1, §2

MCF-7 = assay: Cytotoxicity MTS assay, 72 h; format: cell-based, human; settings: Homo sapiens, MCF7; MCF-7; 72 h; MTS
From the text: as §1, §2

NHDF = assay: Cytotoxicity MTS assay, 72 h; format: cell-based; settings: Homo sapiens, NHDF normal fibroblasts
From the text: as §1, §2

Nc1cccnc1C=NNC(=S)N1CCN(c2ccc(Cl)cc2)CC1 [L^3, N’-[(3-aminopyridin-2-yl)methylidene]-4-(4-chlorophenyl)piperazine-1-carbothiohydrazide]
IC50 (cancer cell lines): 0.12 to 0.2 µM
IC50 (HCT116 p53^-/-): 0.167 ± 0.018 µM
IC50 (U-251): 0.128 ± 0.012 µM
IC50 (Hs683): 1.48 ± 0.335 µM
IC50 (HCT116 p53^+/+): 0.12 ± 0.005 µM
IC50 (MCF-7): 0.204 ± 0.049 µM
IC50 (NHDF): > 25 µM
melting point: 206 to 207 °C
